Values quoted from earlier work in patent publication US9237750B2, “Ornidazole and related compounds for use as herbicides” (RAMOT AT TEL-AVIV UNIVERSITY LTD., priority 2012, dated 2016).

Tested on: ferredoxin-linked NADP+ reduction
Conditions: photosystem II non-operative, ascorbate as electron source, broken spinach chloroplasts, DCPIP; cited from earlier work

Cc1ncc([N+](=O)[O-])n1CCO [Metronidazole, 1-β-hydroxyethyl-2-methyl-5-nitroimidazole]
inhibition of ferredoxin-linked NADP+ reduction: potent inhibitor
